According to patent EP0876402B1, “GROWTH HORMONE SECRETAGOGUE RECEPTOR FAMILY” (MERCK & CO., INC., priority 1995, dated 1997):

Tested on: swine growth hormone secretagogue receptor (GHSR) Type I, clone 7-3, expressed transiently in COS-7 cells
Experiment: 35S-labeled Compound A binding assay on crude membranes of transfected COS-7 cells

SMILES	specific binding displaced (displacement of ^35S-Compound A binding by 50 nM unlabeled Compound A, 60 min)	Kd (saturation binding of ^35S-Compound A, clone 7-3 expressed transiently in COS-7 cells, 20°C, 1 hr)
CC(C)(N)C(=O)N[C@H](COCc1ccccc1)C(=O)N1CCC2(CC1)CN(S(C)(=O)=O)c1ccccc12 [Compound A]	> 90%	–
CC(C)(N)C(=O)N[C@H](COCc1ccccc1)C(=O)N1CCC2(CC1)CN(S(C)(=O)=O)c1ccccc12 [^35S-Compound A]	–	~0.2 nM
